Tests used:
Assay type in all cases: in vivo
Solanum nigrum (SOLNI) [1] = assay: Herbicidal glasshouse test, post-emergence; details: post-emergence (sprayed after 8 days cultivation), 1000 g/h, evaluated after 13 days
Experimental: (§1) Seeds of a variety of test species are sown in standard soil in pots (Alopecurus myosuroides (ALOMY), Setaria faberi (SETFA), Echinochloa crus-galli (ECHCG), Solanum nigrum (SOLNI), Amaranthus retoflexus (AMARE), Ipomoea hederacea (IPOHE)). After cultivation for one day (pre-emergence) or after 8 days cultivation (post-emergence) under controlled conditions in a glasshouse (at 24/16° C., day/night; 14 hours light; 65% humidity), the plants are sprayed with an aqueous spray solution derived from the formulation of the technical active ingredient in acetone/water (50:50) solution containing 0.5% Tween 20 (polyoxyethelyene sorbitan monolaurate, CAS RN 9005-64-5). Compounds are applied at 1000 g/h. The test plants are then grown in a glasshouse under controlled conditions in a glasshouse (at 24/16° C., day/night; 14 hours light; 65% humidity) and watered twice daily. After 13 days for pre and post-emergence, the test is evaluated for the percentage damage caused to the plant. The biological activities are shown in the following table on a five point scale (5=80-100%; 4=60-79%; 3=40-59%; 2=20-39%; 1=0-19%).

Setaria faberi (SETFA) [2] = assay: Herbicidal glasshouse test, post-emergence; details: post-emergence (sprayed after 8 days cultivation), 1000 g/h, evaluated after 13 days
Experimental: as §1

[3] = tested on: Alopecurus myosuroides (ALOMY); assay: Herbicidal glasshouse test, post-emergence; details: post-emergence (sprayed after 8 days cultivation), 1000 g/h, evaluated after 13 days
Experimental: as §1

[4] = tested on: Echinochloa crus-galli (ECHCG); assay: Herbicidal glasshouse test, post-emergence; details: post-emergence (sprayed after 8 days cultivation), 1000 g/h, evaluated after 13 days
Experimental: as §1

[5] = tested on: Ipomoea hederacea (IPOHE); assay: Herbicidal glasshouse test, post-emergence; details: post-emergence (sprayed after 8 days cultivation), 1000 g/h, evaluated after 13 days
Experimental: as §1

[6] = tested on: Amaranthus retoflexus (AMARE); assay: Herbicidal glasshouse test, post-emergence; details: post-emergence (sprayed after 8 days cultivation), 1000 g/h, evaluated after 13 days
Experimental: as §1

Solanum nigrum (SOLNI) [7] = assay: Herbicidal glasshouse test, pre-emergence; details: pre-emergence (sprayed after cultivation for one day), 1000 g/h, evaluated after 13 days
Experimental: as §1

Setaria faberi (SETFA) [8] = assay: Herbicidal glasshouse test, pre-emergence; details: pre-emergence (sprayed after cultivation for one day), 1000 g/h, evaluated after 13 days
Experimental: as §1

[9] = tested on: Alopecurus myosuroides (ALOMY); assay: Herbicidal glasshouse test, pre-emergence; details: pre-emergence (sprayed after cultivation for one day), 1000 g/h, evaluated after 13 days
Experimental: as §1

[10] = tested on: Echinochloa crus-galli (ECHCG); assay: Herbicidal glasshouse test, pre-emergence; details: pre-emergence (sprayed after cultivation for one day), 1000 g/h, evaluated after 13 days
Experimental: as §1

[11] = tested on: Ipomoea hederacea (IPOHE); assay: Herbicidal glasshouse test, pre-emergence; details: pre-emergence (sprayed after cultivation for one day), 1000 g/h, evaluated after 13 days
Experimental: as §1

[12] = tested on: Amaranthus retoflexus (AMARE); assay: Herbicidal glasshouse test, pre-emergence; details: pre-emergence (sprayed after cultivation for one day), 1000 g/h, evaluated after 13 days
Experimental: as §1

Structure (SMILES)	percentage damage caused to the plant, five point scale, POST Application SOLNI (Solanum nigrum (SOLNI) [1])	percentage damage caused to the plant, five point scale, POST Application SETFA (Setaria faberi (SETFA) [2])	percentage damage caused to the plant, five point scale, POST Application ALOMY [3]	percentage damage caused to the plant, five point scale, POST Application ECHCG [4]	percentage damage caused to the plant, five point scale, POST Application IPOHE [5]	percentage damage caused to the plant, five point scale, POST Application AMARE [6]	percentage damage caused to the plant, five point scale, PRE Application SOLNI (Solanum nigrum (SOLNI) [7])	percentage damage caused to the plant, five point scale, PRE Application SETFA (Setaria faberi (SETFA) [8])	percentage damage caused to the plant, five point scale, PRE Application ALOMY [9]	percentage damage caused to the plant, five point scale, PRE Application ECHCG [10]	percentage damage caused to the plant, five point scale, PRE Application IPOHE [11]	percentage damage caused to the plant, five point scale, PRE Application AMARE [12]
C=Cc1ccc(-n2nc(C)cc(C(=O)Nc3nnnn3C)c2=O)cc1 [Compound 1.008]	5 (5=80-100%)	5 (5=80-100%)	5 (5=80-100%)	5 (5=80-100%)	5 (5=80-100%)	5 (5=80-100%)	5 (5=80-100%)	5 (5=80-100%)	5 (5=80-100%)	4 (4=60-79%)	2 (2=20-39%)	5 (5=80-100%)
CCOc1ccc(-n2nc(C)cc(C(=O)Nc3nnnn3C)c2=O)cc1 [Compound 1.010]	5 (5=80-100%)	5 (5=80-100%)	5 (5=80-100%)	5 (5=80-100%)	5 (5=80-100%)	5 (5=80-100%)	5 (5=80-100%)	5 (5=80-100%)	5 (5=80-100%)	5 (5=80-100%)	4 (4=60-79%)	5 (5=80-100%)
CCc1ccc(-n2nc(C)cc(C(=O)Nc3nnnn3C)c2=O)cc1 [Compound 1.011]	5 (5=80-100%)	5 (5=80-100%)	5 (5=80-100%)	5 (5=80-100%)	5 (5=80-100%)	5 (5=80-100%)	5 (5=80-100%)	5 (5=80-100%)	5 (5=80-100%)	5 (5=80-100%)	4 (4=60-79%)	5 (5=80-100%)
Cc1cc(C(=O)Nc2nnnn2C)c(=O)n(-c2ccc(Cl)cc2)n1 [Compound 1.012]	5 (5=80-100%)	5 (5=80-100%)	5 (5=80-100%)	5 (5=80-100%)	5 (5=80-100%)	5 (5=80-100%)	5 (5=80-100%)	5 (5=80-100%)	5 (5=80-100%)	5 (5=80-100%)	3 (3=40-59%)	5 (5=80-100%)
Cc1cc(C(=O)Nc2nnnn2C)c(=O)n(-c2ccc(F)c(F)c2)n1 [Compound 1.013]	5 (5=80-100%)	5 (5=80-100%)	5 (5=80-100%)	5 (5=80-100%)	5 (5=80-100%)	5 (5=80-100%)	5 (5=80-100%)	5 (5=80-100%)	5 (5=80-100%)	5 (5=80-100%)	4 (4=60-79%)	5 (5=80-100%)
Cc1cc(C(=O)Nc2nnnn2C)c(=O)n(-c2ccc(F)cc2)n1 [Compound 1.014]	5 (5=80-100%)	5 (5=80-100%)	5 (5=80-100%)	5 (5=80-100%)	5 (5=80-100%)	5 (5=80-100%)	5 (5=80-100%)	5 (5=80-100%)	5 (5=80-100%)	5 (5=80-100%)	4 (4=60-79%)	5 (5=80-100%)
Cc1cc(C(=O)Nc2nnnn2C)c(=O)n(Cc2cccc(F)c2)n1 [Compound 1.016]	5 (5=80-100%)	1 (1=0-19%)	4 (4=60-79%)	4 (4=60-79%)	3 (3=40-59%)	5 (5=80-100%)	5 (5=80-100%)	5 (5=80-100%)	2 (2=20-39%)	4 (4=60-79%)	4 (4=60-79%)	5 (5=80-100%)
COCCn1nc(C)cc(C(=O)Nc2nnnn2C)c1=O [Compound 1.017]	5 (5=80-100%)	5 (5=80-100%)	5 (5=80-100%)	5 (5=80-100%)	5 (5=80-100%)	5 (5=80-100%)	5 (5=80-100%)	5 (5=80-100%)	5 (5=80-100%)	5 (5=80-100%)	5 (5=80-100%)	5 (5=80-100%)
